Data: US12662475B2, “Difluorocyclohexyl derivatives as IL-17 modulators” (UCB BIOPHARMA SRL, priority 2020, dated 2026)
Where a name gives a salt, the structure may show the parent alone.

system: IL-17 induced IL-6 release from human dermal fibroblasts; assay: Inhibition of IL-17A induced IL-6 release from dermal fibroblast cell line (HDF cell line assay); assay type: cell-based; settings: Incubation Time 5 h
Procedure: Inhibition of IL-17A Induced IL-6 Release from Dermal Fibroblast Cell Line
The purpose of this assay is to test the neutralising ability to IL-17 proteins, in a human primary cell system.
The resultant IL-6 response was then measured using a homogenous time-resolved FRET kit from Cisbio. The kit utilises two monoclonal antibodies, one labelled with Eu-Cryptate (Donor) and the second with d2 or XL665 (Acceptor).
The ability of a compound to inhibit IL-17 induced IL-6 release from human dermal fibroblasts is measured in this assay.
The TrypLE was neutralised using complete medium (45 mL) and the cells were centrifuged at 300×g for 3 minutes. […] The cells were left for a minimum of three hours, at 37° C./5% CO2, to adhere to the plate.
10 μL from the aqueous dilution plate was transferred to the reagent plate containing 30 μL of the diluted cytokines, to give a 2.5% DMSO solution. The compounds were incubated with the cytokine mixtures for 1 h or 5 h at 37° C. After the incubation, 10 μL was transferred to the assay plate, to give a […] solution, then incubated for 18-20 h at 37° C./5% CO2.

SMILES	IC50 [nM]
Cc1nonc1C(=O)N[C@H](c1nc2c(F)c([C@@H](CC(F)F)C(=O)N[C@@H](C)C(F)(F)F)ccc2[nH]1)C1CCC(F)(F)CC1 (single isomer, unassigned) [Example 45]	501
Cc1nonc1C(=O)N[C@H](c1nc2c(F)c([C@H](CC(F)F)C(=O)N[C@H](C)C(F)(F)F)ccc2[nH]1)C1CCC(F)(F)CC1 (single isomer, unassigned) [Example 47]	158
Cc1nonc1C(=O)N[C@H](c1nc2c(F)c([C@@H](CC(F)F)C(=O)N[C@H](C)C(F)(F)F)ccc2[nH]1)C1CCC(F)(F)CC1 (single isomer, unassigned) [Example 48]	3160
O=C(N[C@H](c1nc2c(F)c([C@H](CC(F)F)C(=O)NCC(F)(F)F)ccc2[nH]1)C1CCC(F)(F)CC1)c1ccccc1F (single isomer, unassigned) [Example 50]	10
O=C(N[C@H](c1nc2c(F)c([C@@H](CC(F)F)C(=O)NCC(F)(F)F)ccc2[nH]1)C1CCC(F)(F)CC1)c1ccccc1F (single isomer, unassigned) [Example 51]	1580
CC(C)n1ncnc1C(=O)N[C@H](c1nc2c(F)c([C@@H](CC(F)F)C(=O)NCC(C)(F)F)ccc2[nH]1)C1CCC(F)(F)CC1 (single isomer, unassigned) [Example 54]	79.4
CC(C)n1ncnc1C(=O)N[C@H](c1nc2c(F)c([C@H](CC(F)F)C(=O)NCC(C)(F)F)ccc2[nH]1)C1CCC(F)(F)CC1 (single isomer, unassigned) [Example 55]	3.98
CC(C)n1ncnc1C(=O)N[C@H](c1nc2c(F)c([C@@H](CC(F)F)C(=O)NCC(C)(C)F)ccc2[nH]1)C1CCC(F)(F)CC1 (single isomer, unassigned) [Example 57]	2510
CC(C)n1ncnc1C(=O)N[C@H](c1nc2c(F)c([C@H](CC(F)F)C(=O)NCC(C)(C)F)ccc2[nH]1)C1CCC(F)(F)CC1 (single isomer, unassigned) [Example 58]	7.94
CC(C)(F)CNC(=O)[C@H](CC(F)(F)F)c1ccc2[nH]c([C@@H](NC(=O)c3nonc3C3CC3)C3CCC(F)(F)CC3)nc2c1F (single isomer, unassigned) [Example 63]	158
CC(C)(F)CNC(=O)[C@@H](CC(F)(F)F)c1ccc2[nH]c([C@@H](NC(=O)c3nonc3C3CC3)C3CCC(F)(F)CC3)nc2c1F (single isomer, unassigned) [Example 64]	2
CC(C)n1ncnc1C(=O)N[C@H](c1nc2c(F)c([C@@H](CC(F)(F)F)C(=O)NCC(C)(F)F)ccc2[nH]1)C1CCC(F)(F)CC1 (single isomer, unassigned) [Example 69]	2510
CC(C)n1ncnc1C(=O)N[C@H](c1nc2c(F)c([C@H](CC(F)(F)F)C(=O)NCC(C)(F)F)ccc2[nH]1)C1CCC(F)(F)CC1 (single isomer, unassigned) [Example 70]	6.31
CC(C)n1ncnc1C(=O)N[C@H](c1nc2c(F)c([C@@H](CC(F)(F)F)C(=O)NCC(C)(C)F)ccc2[nH]1)C1CCC(F)(F)CC1 (single isomer, unassigned) [Example 72]	1580
CC(C)n1ncnc1C(=O)N[C@H](c1nc2c(F)c([C@H](CC(F)(F)F)C(=O)NCC(C)(C)F)ccc2[nH]1)C1CCC(F)(F)CC1 (single isomer, unassigned) [Example 73]	6.31
CC(F)(F)CNC(=O)[C@H](CC(F)(F)F)c1ccc2[nH]c([C@@H](NC(=O)C3(F)CC3)C3CCC(F)(F)CC3)nc2c1F (single isomer, unassigned) [Example 83]	2000
CC(F)(F)CNC(=O)[C@@H](CC(F)(F)F)c1ccc2[nH]c([C@@H](NC(=O)C3(F)CC3)C3CCC(F)(F)CC3)nc2c1F (single isomer, unassigned) [Example 84]	25.1
CC(C)n1ncnc1C(=O)N[C@H](c1nc2c(F)c([C@@H](CC(C)(F)F)C(=O)NCC(C)(F)F)ccc2[nH]1)C1CCC(F)(F)CC1 (single isomer, unassigned) [Example 86]	6310
CC(C)n1ncnc1C(=O)N[C@H](c1nc2c(F)c([C@H](CC(C)(F)F)C(=O)NCC(C)(F)F)ccc2[nH]1)C1CCC(F)(F)CC1 (single isomer, unassigned) [Example 87]	7.94
Cc1nonc1C(=O)N[C@H](c1nc2c(F)c(C(CC(F)(F)F)C(=O)NCCC(F)(F)F)ccc2[nH]1)C1CCC(F)(F)CC1 (stereo partly drawn) [Example 13, N—[(S)-(4,4-Difluorocyclohexyl){4-fluoro-5-[3,3,3-trifluoro-1-(3,3,3-trifluoropropyl-carbamoyl)propyl]-1H-benzimidazol-2-yl}methyl]-4-methyl-1,2,5-oxadiazole-3-carboxamide]	5.01
Cc1nonc1C(=O)N[C@H](c1nc2c(F)c(C(CC(F)(F)F)C(=O)NCC3CC3(F)F)ccc2[nH]1)C1CCC(F)(F)CC1 (stereo partly drawn) [Example 14, N—[(S)-(4,4-Difluorocyclohexyl)(5-{1-[(2,2-difluorocyclopropyl)methylcarbamoyl]-3,3,3-trifluoropropyl}-4-fluoro-1H-benzimidazol-2-yl)methyl]-4-methyl-1,2,5-oxadiazole-3-carboxamide]	7.94
Cc1nonc1C(=O)N[C@H](c1nc2nc(C3(C(=O)NCC(F)(F)F)CCC(F)(F)CC3)ccc2[nH]1)C1CCC(F)(F)CC1 [Example 39, N—[(S)-(4,4-Difluorocyclohexyl){5-[4,4-difluoro-1-(2,2,2-trifluoroethylcarbamoyl)-cyclohexyl]-1H-imidazo[4,5-b]pyridin-2-yl}methyl]-4-methyl-1,2,5-oxadiazole-3-carboxamide Monoformate Salt]	5.01
Cc1nonc1C(=O)N[C@H](c1nc2c(F)c(C(CC(F)F)C(=O)NC(C3CC3)C(F)(F)F)ccc2[nH]1)C1CCC(F)(F)CC1 (stereo partly drawn) [Example 52, N—[(S)-(5-{1-[(1-Cyclopropyl-2,2,2-trifluoroethyl)carbamoyl]-3,3-difluoropropyl}-4-fluoro-1H-benzimidazol-2-yl)(4,4-difluorocyclohexyl)methyl]-4-methyl-1,2,5-oxadiazole-3-carboxamide]	5.01
CC(C)n1ncnc1C(=O)N[C@H](c1nc2nc(C3(C(=O)NCC(F)(F)F)CCC(F)(F)CC3)ccc2[nH]1)C1CCC(F)(F)CC1 [Example 77, N—[(S)-(4,4-Difluorocyclohexyl){5-[4,4-difluoro-1-(2,2,2-trifluoroethylcarbamoyl)-cyclohexyl]-1H-imidazo[4,5-b]pyridin-2-yl}methyl]-2-isopropyl-1,2,4-triazole-3-carboxamide]	12.6
O=C(N[C@H](c1nc2nc(C3(C(=O)NCC(F)(F)F)CCC(F)(F)CC3)ccc2[nH]1)C1CCC(F)(F)CC1)C1(F)CC1 [Example 78, 1-(2-{(S)-(4,4-Difluorocyclohexyl)[(1-fluorocyclopropanecarbonyl)amino]methyl}-1H-imidazo[4,5-b]pyridin-5-yl)-4,4-difluoro-N-(2,2,2-trifluoroethyl)cyclohexanecarboxamide]	15.8
CC(C)n1ncnc1C(=O)N[C@H](c1nc2c(F)c([C@H](CC(C)(F)F)C(=O)NCC(C)(C)F)ccc2[nH]1)C1CCC(F)(F)CC1 [Example 79, N—[(S)-(4,4-Difluorocyclohexyl)(5-{(1S)-3,3-difluoro-1-[(2-fluoro-2-methylpropyl)-carbamoyl]butyl}-4-fluoro-1H-benzimidazol-2-yl)methyl]-2-isopropyl-1,2,4-triazole-3-carboxamide]	7.94
CC(C)n1ncnc1C(=O)N[C@H](c1nc2c(F)c([C@H](CC(F)F)C(=O)NCC(F)(F)F)ccc2[nH]1)C1CCC(F)(F)CC1 [Example 80, N—[(S)-(4,4-Difluorocyclohexyl){5-[(1S)-3,3-difluoro-1-(2,2,2-trifluoroethylcarbamoyl)-propyl]-4-fluoro-1H-benzimidazol-2-yl}methyl]-2-isopropyl-1,2,4-triazole-3-carboxamide]	6.31
O=C(NCC(F)(F)F)[C@@H](CC(F)F)c1ccc2[nH]c([C@@H](NC(=O)C3(F)CC3)C3CCC(F)(F)CC3)nc2c1F [Example 81, N—[(S)-(4,4-Difluorocyclohexyl){5-[(1S)-3,3-difluoro-1-(2,2,2-trifluoroethylcarbamoyl)-propyl]-4-fluoro-1H-benzimidazol-2-yl}methyl]-1-fluorocyclopropanecarboxamide]	31.6
